In patent publication US20030091533A1, “Regulation of mononuclear phagocyte stimulation” (priority 2001, published 2003):
Marks after values point to notes of the source that are not given here.

Assays:
Format in all cases: cell-based, human
[1] = system: LPS-stimulated PBM; test: TNF-α release, cytotoxic bioassay with WEHI 164 clone 13 cells, PBM; details: preincubated 24 hour with cytokine (IL-9, IL-4 20 ng/ml, IFN-γ 200 U/ml) or medium, LPS 1 μg/ml 20 h; without LPS 10.2±4.1
Method: (§1) PBM and AM obtained as described infra (1×10^6 PBM, 0.5×10^6 AM) were preincubated for 24 hour with cytokines, IL-4, IL-9 (20 ng/ml) and IFN-γ (200 U/ml) before the stimulation by LPS (1 μg/ml) for 20 h. Supernatants were harvested and frozen at −20° C. until cytokine titration. TNF-α release was determined in supernatants by a cytotoxic bioassay using WEHI 164 clone 13 target cells (Espevik and Nissen-Meyer, J. Immunol. Methods, 95:99-105 (1986) (incorporated herein by reference)), while IL-8 was quantitated in the same supernatants by ELISA. FIG. 5 depicts the effects of IL-9, IL-4, and IFN-γ on the release of TNFα (A) and IL-8 (B) by LPS-stimulated PBM and AM. Data are means±SEM (n=3). *P<0.001 compared with unstimulated cells; **P<0.05 compared with cells preincubated with medium.
(§2) Cells (1×10^6 PBM or 0.5×10^6 AM/well) were distributed in 24-well plates (Falcon), preincubated in cRPMI for 24 hours at 37° C., 5% CO2 with cytokines (IL-9, IL-4 (20 ng/ml) and IFN-γ (200 U/ml)) and stimulated for 20 hours with 1 μg/ml LPS without removing cytokines. Supernatants were harvested and frozen at −20° C. until cytokine titration. Release of TNF-α was quantified by a cytotoxicity bioassay using WEHI 164 cells clone 13, as previously described (Espevik and Nissen-Meyer, J. Immunol. Methods, 95:99-105 (1986) incorporated herein by reference), using rhTNF-α from Boehringer as a standard. IL-8, IL-10 and TGF-β1 concentrations were determined by ELISA. A kit from CLB (Amsterdam, The Netherlands) was used for IL-10 quantitation, following the manufacturer's protocol. A kit from Biosource allowed to determine TGF-β1 after the release from its latent complexes by a treatment of supernatants with ethanol acid (‘acid-treated supernatants’); TGF-P 1 was also assessed in crude supernatants (‘untreated supernatants’). […] The reaction was then developed in 0.03% v/v H2O2 substrate and 0.42 mM 3,3′,5,5′-tetramethylbenzidine as chromogen in 100 mM sodium acetate/citric acid buffer (pH 4.9), stopped with 2 M H2SO4, and read in a plate spectrometer at 450 nm. […]

[2] = system: LPS-stimulated AM; test: TNF-α release, cytotoxic bioassay with WEHI 164 clone 13 cells, AM; details: for TNF-α release by LPS-stimulated AM: preincubated 24 hour with cytokine (IL-9, IL-4 20 ng/ml, IFN-γ 200 U/ml) or medium, LPS 1 μg/ml 20 h, without LPS 4.6±2.1
Method: as §1, §2

[3] = system: LPS-stimulated PBM; test: IL-8 release by ELISA, PBM; details: for effect on IL-8 release by LPS-stimulated PBM: preincubated 24 hour, LPS 20 hour
Method: as §1, §2

[4] = system: CD14; test: CD14 surface expression on PBM by FACS; details: for CD14 expression (MFI): PBM preincubated 24 hour, 20 ng/ml IL-9 or IL-4, 200 U/ml IFN-γ, means±SD, medium 107 ± 4; for CD14 expression on the surface of PBM compared with medium alone: preincubated for 24 hour
Method: Table 2. Cells (0.2×10^6) were preincubated for 24 hour with cytokines (20 ng/ml for IL-9 or IL-4 and 200 U/ml for IFN-γ), before the assessment of LPS receptor expression by immunostaining using anti-human CD14 mAb conjugated to FITC and anti-human TLR4 rabbit Ab followed by mouse anti-rabbit IgG (MAR-FITC). Cell-associated fluorescence was evaluated by FACS and expressed as mean fluorescence intensity (MFI). Autofluorescence of PBM was negligible (MFI: 3±1). Data are means±SD (n=3), and are representative of two experiments. *P<0.05 compared with cells preincubated with medium.
Additional stainings for CD14 and Toll-like receptor (TLR)-4 were performed on PBM preincubated for 24 hour with cytokines, using respectively FITC-conjugated anti-CD14 mAb (clone MøP9, mIgG2b, Becton Dickinson) and anti-TLR4 rabbit Ab (Santa Cruz, Calif.) followed by F (ab′)2 fragments of mouse anti-rabbit IgG (MAR)-FITC.

[5] = system: LPS-stimulated PBM; test: IL-10 release by ELISA, PBM; details: for IL-10 release by LPS-stimulated PBM: preincubated 24 hour, LPS 20 h
Method: (§3) FIG. 6 depicts the effect of IL-9, IL-4 and IFN-γ on the release of IL-10 (A) and TGF-β1 (B) by LPS-stimulated PBM and AM cultured under the same conditions as described in FIG. 5 Example I. D. TGF-β1 was determined by ELISA in crude supernatants (untreated supernatants) and in ethanol-acid (acid-treated) supernatants, using a kit from Biosource for determining TGF-β1 release from its latent complexes. An ELISA kit from CLB (Amsterdam, The Netherlands) was used to determine IL-10 following the manufacturer's protocol. […] Data are means±SEM (n=3). *P<0.05 compared with unstimulated cells; **P<0.05 compared with cells preincubated with medium.
as §2, with “supernatants’). To assay for IL-8, 96-well plates were coated overnight at 4° C. with 4 μg/ml anti-hIL-8 mAb (Sigma, clone 6217.11) in 100 mM sodium carbonate buffer (pH 9.6).” for “supernatants’).”

[6] = system: LPS-stimulated PBM; test: TGF-β1 release by ELISA, PBM; details: for potentiation of TGF-β1 production by LPS-stimulated PBM: preincubated 24 hour
Method: as §3
Cells (1×10^6 PBM or 0.5×10^6 AM/well) were distributed in 24-well plates (Falcon), preincubated in cRPMI for 24 hours at 37° C., 5% CO2 with cytokines (IL-9, IL-4 (20 ng/ml) and IFN-γ (200 U/ml)) and stimulated for 20 hours with 1 μg/ml LPS without removing cytokines. Supernatants were harvested and frozen at −20° C. until cytokine titration. Release of TNF-α was quantified by a cytotoxicity bioassay using WEHI 164 cells clone 13, as previously described (Espevik and Nissen-Meyer, J. Immunol. Methods, 95:99-105 (1986) incorporated herein by reference), using rhTNF-α from Boehringer as a standard. IL-8, IL-10 and TGF-β1 concentrations were determined by ELISA. A kit from CLB (Amsterdam, The Netherlands) was used for IL-10 quantitation, following the manufacturer's protocol. A kit from Biosource allowed to determine TGF-β1 after the release from its latent complexes by a treatment of supernatants with ethanol acid (‘acid-treated supernatants’); TGF-P 1 was also assessed in crude supernatants (‘untreated supernatants’). To assay for IL-8, 96-well plates were coated overnight at 4° C. with 4 μg/ml anti-hIL-8 mAb (Sigma, clone 6217.11) in 100 mM sodium carbonate buffer (pH 9.6). After washings in PBS containing 0.1% v/v Tween 20 and blocking for 1 hour at 37° C. with 1% w/v BSA in the same buffer, rhIL-8 standards (Biosource International) and supernatants were incubated for 2 hour at 37° C. Plates were then incubated with 20 ng/ml biotinylated polyclonal anti-hIL-8 Ab (R§D Systems) in blocking buffer and, after washings, with HRP-conjugated streptavidin (Sigma). The reaction was then developed in 0.03% v/v H2O2 substrate and 0.42 mM 3,3′,5,5′-tetramethylbenzidine as chromogen in 100 mM sodium acetate/citric acid buffer (pH 4.9), stopped with 2 M H2SO4, and read in a plate spectrometer at 450 nm. The sensitivity of the TNF-α bioassay was 0.2 pg/ml, and that of IL-8, IL-10, and TGF-β1 immunoassays 10 pg/ml, 2 pg/ml, and 2 pg/ml, respectively. All supernatants were assayed in duplicate.

[7] = system: LPS-stimulated AM; test: IL-8 release by ELISA, AM; details: preincubated 24 hour, LPS 20 hour
Method: as §1, with “Data are means±SEM (n=3). *P<0.001 compared with unstimulated cells; **P<0.05 compared with cells preincubated with medium.” left out
(§4) Cells (1×10^6 PBM or 0.5×10^6 AM/well) were distributed in 24-well plates (Falcon), preincubated in cRPMI for 24 hours at 37° C., 5% CO2 with cytokines (IL-9, IL-4 (20 ng/ml) and IFN-γ (200 U/ml)) and stimulated for 20 hours with 1 μg/ml LPS without removing cytokines. […] Release of TNF-α was quantified by a cytotoxicity bioassay using WEHI 164 cells clone 13, as previously described (Espevik and Nissen-Meyer, J. Immunol. Methods, 95:99-105 (1986) incorporated herein by reference), using rhTNF-α from Boehringer as a standard. IL-8, IL-10 and TGF-β1 concentrations were determined by ELISA. A kit from CLB (Amsterdam, The Netherlands) was used for IL-10 quantitation, following the manufacturer's protocol. […]

[8] = system: LPS-stimulated AM; test: TGF-β1 release by ELISA, AM; details: acid-treated supernatants; preincubated 24 hour 20 ng/ml, LPS 20 h; medium-preincubated 109±23
Method: as §3, §4

[9] = system: LPS-stimulated AM; test: IL-10 release by ELISA, AM; details: preincubated 24 hour, LPS 20 h
Method: as §3, §4

Molecule | TNF-α release by LPS-stimulated PBM [1] [pg/mL] | effect on TNF-α production in LPS-stimulated AM ([2]; preincubated 24 hour, LPS 20 h) | IL-8 release by LPS-stimulated PBM ([3]; preincubated 24 hour with cytokine or medium, LPS 1 μg/ml 20 hour, without LPS 10.0±2.4) [ng/mL] | CD14 expression (MFI) [4] | CD14 expression on the surface of PBM compared with medium alone [4] | IL-10 release by LPS-stimulated PBM [5] | potentiation of TGF-β1 production by LPS-stimulated PBM ([6]; LPS 20 h) | TNF-α release by LPS-stimulated AM [2] [pg/mL] | effect on IL-8 release by LPS-stimulated PBM [3] | effect on IL-8 release by LPS-stimulated AM [7] | effect on the up regulation of CD14 on PBM incubated with IFN-γ ([4]; co-incubation with IFN-γ) | LPS-induced IL-10 release by PBM ([5]; preincubated 24 hour 20 ng/ml, LPS 1 μg/ml 20 h, medium-preincubated 217.8±25.8) [pg/mL] | production of TGF-β1 by LPS-stimulated PBM ([6]; acid-treated supernatants, preincubated 24 hour 20 ng/ml, LPS 20 h, medium-preincubated 586±64) [pg/mL] | modulation of TGF-β1 in unstimulated PBM ([6]; without LPS) | production of TGF-β1 by LPS-stimulated AM [8] | IL-10 release by LPS-stimulated AM [9]
IL-4: Th2 cytokine interleukin-4 used as comparator, 20 ng/ml | 72.5 ± 21.5 | No significant inhibition | 20.1 ± 2.1 | 57 ± 3* MFI | down regulated | inhibited | not observed |  |  |  |  |  |  |  |  | 
IL-9: Human IL-9 purified from SF9 insect cell cultures infected with recombinant baculovirus | 84.2 ± 17.2 |  |  | 108 ± 5 MFI | not significantly different |  |  | 74.8 ± 10.2 | no significant modulation | no significant modulation | inhibited | 119.7 ± 8.7 | 1687 ± 94 | no modulation | 366+21 pg/ml | 
IFN-γ: Interferon gamma, primes mononuclear phagocytes, 200 U/ml (protein, UniProt P01579 24-161, looked up) Interferon gamma: QDPYVKEAENLKKYFNAGHSDVADNGTLFLGILKNWKEESDRKIMQSQIVSFYFKLFKNFKDDQSIQKSVETIKEDMNVKFFNSNKKKRDDFEKLTNYSVTDLNVQRKAIHELIQVMAELSPAAKTGKRKRSQMLFRG | 289.8 ± 12.9 |  |  | 121 ± 6* MFI | increased | decreased | not observed | 145.2 ± 9.4 | no significant modulation | no significant modulation |  |  |  |  |  | decreased
